Source: patent US5358951A, “Angiotensin II receptor blocking 2, 3, 6 substituted quinazolinones” (American Cyanamid Company, priority 1993, dated 1994)

System: vasopressor response of angiotensin II
Assay: AII Challenge: antagonism of angiotensin II vasopressor response
Format: in vivo
Conditions: for inhibition in vivo at 3 mg/kg / inhibition in vivo at 5 mg/kg: Rattus norvegicus; for inhibition in vivo at 3 mg/kg: iv; for inhibition in vivo at 5 mg/kg: po
Outline: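 Percent antagonism is based on the systolic blood pressure rise (mmHg) to i.v. angiotensin II at 0.05 and 0.1 ug/kg. Each rat's own predose response was taken as 100%. Challenges were repeated from 30 to 300 min after i.v., i.p. or oral compound in cannulated conscious male SHR, 16-20 weeks old.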

SMILES: CCCCc1nc2ccc(C3(C)CC4c5ccccc5CCN4O3)cc2c(=O)n1Cc1ccc(-c2ccccc2-c2nnn[nH]2)cc1 (stereo not drawn) [Example 64, Cis and Trans-2-Butyl-6-(1,5,6,10b-tetrahydro-2-methyl-2H-isoxazolo[3,2-a]isoquinolin-2-yl)-3-[[2'-(1H-tetrazol-5-yl][1,1'-biphenyl]-4-yl]methyl]-4(3H)-quinazolinone]
- Response Average Change (3 mg/kg I.V., AII 0.05 mcg/kg IV, 30 min post dose): 2.5 mmHg
- Response Average Change (3 mg/kg I.V., AII 0.05 mcg/kg IV, 60 min post dose): 2.5 mmHg
- Response Average Change (3 mg/kg I.V., AII 0.05 mcg/kg IV, 90 min post dose): 7.5 mmHg
- Response Average Change (3 mg/kg I.V., AII 0.05 mcg/kg IV, 180 min post dose): 7.5 mmHg
- Response Average Change (3 mg/kg I.V., AII 0.05 mcg/kg IV, 240 min post dose): 18 mmHg
- Response Average Change (3 mg/kg I.V., AII 0.05 mcg/kg IV, 300 min post dose): 7.5 mmHg
- Response Average Change (3 mg/kg I.V., AII 0.1 mcg/kg IV, 30 min post dose): 5 mmHg
- Response Average Change (3 mg/kg I.V., AII 0.1 mcg/kg IV, 60 min post dose): 5 mmHg
- Response Average Change (3 mg/kg I.V., AII 0.1 mcg/kg IV, 90 min post dose): 7.5 mmHg
- Response Average Change (3 mg/kg I.V., AII 0.1 mcg/kg IV, 120 min post dose): 10 mmHg
- Response Average Change (3 mg/kg I.V., AII 0.1 mcg/kg IV, 180 min post dose): 11 mmHg
- Response Average Change (3 mg/kg I.V., AII 0.1 mcg/kg IV, 240 min post dose): 12.5 mmHg
- Response Average Change (3 mg/kg I.V., AII 0.1 mcg/kg IV, 300 min post dose): 18.5 mmHg
- Response Average Change (3 mg/kg I.V., AII 0.5 mcg/kg IV, 120 min post dose): 5 mmHg
- Response Average Change (5 mg/kg P.O., AII 0.05 mcg/kg IV, 30 min post dose): 15 mmHg
- Response Average Change (5 mg/kg P.O., AII 0.05 mcg/kg IV, 60 min post dose): 18.5 mmHg
- Response Average Change (5 mg/kg P.O., AII 0.05 mcg/kg IV, 120 min post dose): 20 mmHg
- Response Average Change (5 mg/kg P.O., AII 0.05 mcg/kg IV, 180 min post dose): 17.5 mmHg
- Response Average Change (5 mg/kg P.O., AII 0.1 mcg/kg IV, 30 min post dose): 27.5 mmHg
- Response Average Change (5 mg/kg P.O., AII 0.1 mcg/kg IV, 60 min post dose): 23.5 mmHg
- Response Average Change (5 mg/kg P.O., AII 0.1 mcg/kg IV, 90 min post dose): 22 mmHg
- Response Average Change (5 mg/kg P.O., AII 0.1 mcg/kg IV, 120 min post dose): 20 mmHg
- Response Average Change (5 mg/kg P.O., AII 0.1 mcg/kg IV, 180 min post dose): 24 mmHg
- Response Average Change (5 mg/kg P.O., AII 0.5 mcg/kg IV, 90 min post dose): 20 mmHg
- inhibition in vivo at 3 mg/kg (0.5 h, 3 mg/kg I.V., AII 0.05 mcg/kg IV, 30 min post dose): 93%
- inhibition in vivo at 3 mg/kg (0.5 h, 3 mg/kg I.V., AII 0.1 mcg/kg IV, 30 min post dose): 91%
- inhibition in vivo at 3 mg/kg (1 h, 3 mg/kg I.V., AII 0.05 mcg/kg IV, 60 min post dose): 93%
- inhibition in vivo at 3 mg/kg (1 h, 3 mg/kg I.V., AII 0.1 mcg/kg IV, 60 min post dose): 91%
- inhibition in vivo at 3 mg/kg (2 h, 3 mg/kg I.V., AII 0.1 mcg/kg IV, 120 min post dose): 81%
- inhibition in vivo at 3 mg/kg (2 h, 3 mg/kg I.V., AII 0.5 mcg/kg IV, 120 min post dose): 86%
- inhibition in vivo at 3 mg/kg (3 h, 3 mg/kg I.V., AII 0.05 mcg/kg IV, 180 min post dose): 79%
- inhibition in vivo at 3 mg/kg (3 h, 3 mg/kg I.V., AII 0.1 mcg/kg IV, 180 min post dose): 80%
- inhibition in vivo at 3 mg/kg (4 h, 3 mg/kg I.V., AII 0.05 mcg/kg IV, 240 min post dose): 51%
- inhibition in vivo at 3 mg/kg (4 h, 3 mg/kg I.V., AII 0.1 mcg/kg IV, 240 min post dose): 77%
- inhibition in vivo at 3 mg/kg (5 h, 3 mg/kg I.V., AII 0.05 mcg/kg IV, 300 min post dose): 79%
- inhibition in vivo at 3 mg/kg (5 h, 3 mg/kg I.V., AII 0.1 mcg/kg IV, 300 min post dose): 66%
- inhibition in vivo at 3 mg/kg ([…], 3 mg/kg I.V., AII 0.05 mcg/kg IV, 90 min post dose): 79%
- inhibition in vivo at 3 mg/kg ([…], 3 mg/kg I.V., AII 0.1 mcg/kg IV, 90 min post dose): 86%
- inhibition in vivo at 5 mg/kg (0.5 h, 5 mg/kg P.O., AII 0.05 mcg/kg IV, 30 min post dose): 54%
- inhibition in vivo at 5 mg/kg (0.5 h, 5 mg/kg P.O., AII 0.1 mcg/kg IV, 30 min post dose): 25%
- inhibition in vivo at 5 mg/kg (1 h, 5 mg/kg P.O., AII 0.05 mcg/kg IV, 60 min post dose): 43%
- inhibition in vivo at 5 mg/kg (1 h, 5 mg/kg P.O., AII 0.1 mcg/kg IV, 60 min post dose): 36%
- inhibition in vivo at 5 mg/kg (2 h, 5 mg/kg P.O., AII 0.05 mcg/kg IV, 120 min post dose): 38%
- inhibition in vivo at 5 mg/kg (2 h, 5 mg/kg P.O., AII 0.1 mcg/kg IV, 120 min post dose): 45%
- inhibition in vivo at 5 mg/kg (3 h, 5 mg/kg P.O., AII 0.05 mcg/kg IV, 180 min post dose): 46%
- inhibition in vivo at 5 mg/kg (3 h, 5 mg/kg P.O., AII 0.1 mcg/kg IV, 180 min post dose): 34%
- inhibition in vivo at 5 mg/kg ([…], 5 mg/kg P.O., AII 0.1 mcg/kg IV, 90 min post dose): 40%
- inhibition in vivo at 5 mg/kg ([…], 5 mg/kg P.O., AII 0.5 mcg/kg IV, 90 min post dose): 38%
